Experimental data reported in US20240398836A1, “EPOXY STEROIDS” (priority 2021, published 2024).

Assays:
Nalm-6 cells [1] = assay: Inhibition of proliferation in leukemia cells (Nalm-6); format: cell-based; conditions: Nalm-6, 24 h, concentration-dependent
Method: In leukemia cells (Nalm-6), cell proliferation is inhibited. After 24 h, 1×10^5 cells will have proliferated to almost threefold (2.97×10^5 cells), while cell proliferation is inhibited up to 100% in a concentration-dependent way by treatment with the steroid WIL 071, see FIG. 1. The experiments were performed in triplicate. The error bars show the standard deviations of the measured values of three independent experiments.

Nalm-6 cells [2] = assay: Synergistic apoptosis induction with cytarabin or vincristine; format: cell-based
Method: (§1) The experiments were performed in triplicate. The error bars show the standard deviations of the measured values of three independent experiments.

[3] = test system: prednisolone-resistant leukemia cells; assay: Overcoming of prednisolone resistance; format: cell-based; conditions: 72 h
Method: The cells were incubated in 6-well plates with 1.0·10^5 cells/mL in two milliliters of medium with the respective steroid derivative in different concentrations. The included solvent control (DMSO) served as a control, which was subtracted from all the other measured values, in order not to take into account the spontaneous apoptosis of the cells that takes place independently of the concentration of active ingredient. After 72 h, a modified cell cycle analysis was performed, in order to quantify the proportion of apoptotic cells by flow cytometry. For each concentration of the steroid, the respective mean values f standard deviations, n=3 (*: p<0.05 vs. DMSO, t test) were determined. Using the curve of the dose-effect relationship (steroid concentration−apoptosis induction) formed from these measured values, the steroid concentration at which apoptosis was triggered in 50% of the tested leukemia cells was read.
Prednisolone resistance is said to be overcome if the induction of apoptosis in prednisolone-resistant leukemia cells is as high as it is in normal leukemia cells.

[4] = test system: glioblastoma cells (DBTRG05MG cells); assay: Apoptosis in brain tumor cells; format: cell-based
Method: In contrast to conventional glucocorticoids, the steroid WIL 071 can induce apoptosis also in brain tumor cells.
The DNA fragmentation was measured by flow cytometry, see FIG. 9. The experiments were performed in triplicate. The error bars show the standard deviations of the measured values of three independent experiments.

Nalm-6 cells [5] = assay: Selectivity: apoptosis (DNA fragmentation, flow cytometry) in leukemia cells; format: cell-based
Method: (§2) WIL 071 acts selectively in malignant cells that are proliferating.
(§3) The DNA fragmentation was measured by flow cytometry, see FIG. 7. The experiments were performed in triplicate. The error bars show the standard deviations of the measured values of three independent experiments.

[6] = test system: pancreatic carcinoma cells (DAN-G); assay: Apoptosis in pancreatic carcinoma cells; format: cell-based; conditions: DAN-G cell line
Method: In contrast to conventional glucocorticoids, the steroid WIL 071 can induce apoptosis also in pancreatic carcinoma cells.
The DNA fragmentation was measured by flow cytometry, see FIG. 11. The experiments were performed in triplicate. The error bars show the standard deviations of the measured values of three independent experiments.
The standard treatment for pancreatic carcinoma includes 5-fluorouracil.

BJAB cells = assay: Selectivity: apoptosis (DNA fragmentation, flow cytometry) in lymphoma cells; format: cell-based
Method: as §2, §3

human primary leukocytes = assay: Selectivity: apoptosis (DNA fragmentation, flow cytometry) in leukocytes; format: cell-based
Method: as §2, §3

[7] = test system: neuroblastoma cells (SKNAS cells), LiOn cells; assay: Apoptosis in cytostatics-resistant solid tumor cells; format: cell-based; conditions: SKNAS cells and cisplatin-resistant LiOn cells (caspase-8 underexpression)
Method: In contrast to conventional glucocorticoids, the steroid WIL 071 can induce apoptosis also in solid tumor cells.
The DNA fragmentation was measured by flow cytometry), see FIG. 8. The experiments were performed in triplicate. The error bars show the standard deviations of the measured values of three independent experiments.

[8] = Tolerability (dose escalation, MTD) in an animal model; format: in vivo, NOG-F (Taconic) mice
Method: An incremental increase of dose of the three substances Wil-071, Wil-232 and Wil-369 was performed in 8-week-old female NOG-F (Taconic) mice. Different mice were administered one of up to seven different doses of the test substances. The start was on day 1 with the lowest dose of 10 mg/kg. […] All in all, if possible, the doses 10, 20, 40, 80, 100, 150 and 200 mg/kg are tested. Subsequently, the maximum tolerable dose (MTD) was administered to three more animals, and these were subsequently observed for one week, in order to be able to observe any developing symptoms. For this purpose, the animals were observed and weighed on a daily basis. The body weight is considered an indicator of the general condition of the animals.
For the MTD experiment, Wil-071 was dissolved in 100% DMSO, and then diluted 1:50 with a 20% (w/v) 2-hydroxypropyl-beta-cyclodextrin (HPβCD) solution. Thus, 200 μL of injection solution (per mouse) of a 40 mg/kg dose could be achieved. For 80, 100 and 150 mg/kg, the DMSO proportion was increased to up to 4% (v/v) in the final injection solution. In addition, ultrasound had to be employed, and the sample had to be heated at 60° C. for up to 45 min. 200 mg/kg was reached only as a milky suspension. […] Therefore, Wil-071 can be considered non-toxic up to 150 mg/kg. The final MTD could not be determined because of the insufficient solubility.
For 100 mg/kg of Wil-232, the end concentration of DMSO in the injection solution was 2%. In order to dissolve Wil-232, the sample also had to be treated with ultrasound, and heated at 60° C. The dose of 150 mg/kg was achieved only with 4% DMSO, and 200 mg/kg was achieved only as a suspension. […] Otherwise, there were no signs of toxicity, so that the substance can be considered tolerable up to 150 mg/kg. In this case too, a final MTD cannot be determined because of insufficient solubility.
Using a DMSO stock and 20% HPβCD solution, a maximum of only 5 mg/ml was dissolved. A further increase could not be achieved even with more DMSO or HPβCD. Thus, above the dose of 40 mg/kg, a higher injection volume was injected in order to reach the corresponding dose. […] For the tolerability under the current solubility conditions, a value of […] is to be applied. This dose was injected into the 8 animals for pharmacokinetics. In this case too, a final MTD cannot be determined because of insufficient solubility.

NaKu cells = assay: Apoptosis induction in steroid- and polycytostatics-resistant NaKu cells vs Nalm-6; format: cell-based; conditions: steroid- and polycytostatics-resistant leukemia cells (ALL)
Method: as §1
The steroid WIL 071 overcomes steroid resistence in leukemia cells (NaKu cells). Further, the steroid-resistent leukemia cells (NaKu cells) have co-resistencies for the following cytostatics: • prednisolone, methylprednisolone, dexamethasone, • doxorubicin, daunorubicin, idarubicin, epirubicin • cytarabine, cladribine • etoposide • cyclophosphamide, ifosfamide • vindesine • cisplatin, carboplatin, oxaliplatin

CC(C)CCC[C@@H](C)[C@H]1CC[C@H]2[C@@H]3[C@H]4OC[C@@]5(CC[C@H](O)C[C@]5(O)C4=O)[C@H]3CC[C@]12C [WIL-071, 3β,5α-dihydroxy-7β,19-epoxy-cholestan-6-one]
inhibition of cell proliferation (Nalm-6 cells [1]): up to 100% | synergistic effect on apoptosis with cytarabin (Nalm-6 cells [2]; Nalm-6, parallel treatment with cytarabin): synergistic effects | synergistic effect on apoptosis with vincristine (Nalm-6 cells [2]; Nalm-6, parallel treatment with vincristine): synergistic effects | EC50 [3]: 16 µM | apoptosis induction (DNA fragmentation) [4]: significantly induces apoptosis | apoptosis induction (DNA fragmentation) (Nalm-6 cells [5]): apoptosis is induced in a concentration-dependent way | apoptosis induction (DNA fragmentation) [6]: significantly induces apoptosis | apoptosis induction (DNA fragmentation) (BJAB cells): apoptosis is induced in a concentration-dependent way | apoptosis induction (DNA fragmentation) (human primary leukocytes): apoptosis is not induced | apoptosis induction / overcoming of cytostatics resistance [7]: Resistances towards cytostatics are overcome | outcome of injection of the 200 mg/kg suspension ([8]; 200 mg/kg as suspension, signs of pulmonary embolism in section): immediate death of the animal | dose up to which non-toxic / tolerable ([8]; injection into caudal vein, mice, final MTD not determinable because of solubility): up to 150 mg/kg | apoptosis induction in resistant NaKu cells compared with Nalm-6 (NaKu cells): induces as much apoptosis as in the non-resistent leukemia cells (Nalm-6)
